These results are taken from ChEMBL document CHEMBL3621092, “Lipid-conjugated Smac analogues” (Bioorg Med Chem Lett, 2015).

As usually defined, the EC50 is the concentration giving half of the maximal effect.

Molecules are shown by their SMILES. Where only a bound is given, the exact number is not on record here.

The subject of data set [1] is MDA-MB-231. Description: Growth inhibition of human MDA-MB-231 cells assessed as reduction in cell viability incubated for 48 hrs by PrestoBlue dye based florescence assay. It counts as functional. The conditions noted are these: MDA-MB-231, 48 h.
Data set [2] can be described thus: Stability in mouse plasma incubated at 37 degC by LC/MS method. It counts as ADME, cell-free. To be noted: read-out: Stability.
The test system of data set [3] is MDA-MB-231. Description: Induction of apoptosis in human MDA-MB-231 cells assessed as increase in caspase-3/7 activity incubated for 24 hrs by luminescence based assay. It counts as functional, cell-based.
Data set [4] has as its system MDA-MB-231. Description: Induction of apoptosis in human MDA-MB-231 cells assessed as increase in caspase-3/7 activity incubated for 24 hrs by luminescence based assay relative to control. Type of data set: functional.

As for `CN[C@@H](C)C(=O)N[C@@H](CCCCNC(=O)OCC1c2ccccc2-c2ccccc21)C(=O)N1CCC[C@H]1C(=O)NC(c1ccccc1)c1ccccc1`, the concentration for a half-maximal effect (EC50) in the data set on MDA-MB-231 [1] amounted to 19 µM.

As for `CN[C@@H](C)C(=O)N[C@@H](CCCCNC(=O)Nc1ccc(NC(=O)NCCCC[C@H](NC(=O)[C@H](C)NC)C(=O)N2CCC[C@H]2C(=O)NC(c2ccccc2)c2ccccc2)cc1)C(=O)N1CCC[C@H]1C(=O)NC(c1ccccc1)c1ccccc1`, in the data set on MDA-MB-231 [1], the half-maximal effective concentration (EC50) is 34.8 µM.

As for `CN[C@@H](C)C(=O)N[C@@H](CCCCNC(=O)CNCC(=O)NCCCC[C@H](NC(=O)[C@H](C)NC)C(=O)N1CCC[C@H]1C(=O)NC(c1ccccc1)c1ccccc1)C(=O)N1CCC[C@H]1C(=O)NC(c1ccccc1)c1ccccc1`, the EC50 in the data set on MDA-MB-231 [1] was over 100 µM.

As for `CN[C@@H](C)C(=O)N[C@@H](CO)C(=O)N1CCC[C@H]1C(=O)NC(c1ccccc1)c1ccccc1`, the 50% effective concentration (EC50) in the data set on MDA-MB-231 [1] is over 100 µM.

Take `CN[C@@H](C)C(=O)N[C@@H](CSCc1cccc(CSC[C@H](NC(=O)[C@H](C)NC)C(=O)N2CCC[C@H]2C(=O)NC(c2ccccc2)c2ccccc2)c1)C(=O)N1CCC[C@H]1C(=O)NC(c1ccccc1)c1ccccc1`: in the data set on MDA-MB-231 [1], the 50% effective concentration (EC50) was 7.4 µM.

With `CN[C@@H](C)C(=O)N[C@@H](CCCCN)C(=O)N1CCC[C@H]1C(=O)NC(c1ccccc1)c1ccccc1`, the EC50 in the data set on MDA-MB-231 [1] was over 100 µM.

Turning to `CN[C@@H](C)C(=O)N[C@@H](CCCCNC(=O)Nc1ccc(Oc2ccc(NC(=O)NCCCC[C@H](NC(=O)[C@H](C)NC)C(=O)N3CCC[C@H]3C(=O)NC(c3ccccc3)c3ccccc3)cc2)cc1)C(=O)N1CCC[C@H]1C(=O)NC(c1ccccc1)c1ccccc1`, in the data set with MDA-MB-231 [1], the half-maximal effective concentration (EC50) turned out to be 14.4 µM.

As for `CN[C@@H](C)C(=O)N[C@@H](CSCc1ccc(Oc2ccc(CSC[C@H](NC(=O)[C@H](C)NC)C(=O)N3CCC[C@H]3C(=O)NC(c3ccccc3)c3ccccc3)cc2)cc1)C(=O)N1CCC[C@H]1C(=O)NC(c1ccccc1)c1ccccc1`, the EC50 in the data set on MDA-MB-231 [1] stood at 18.4 µM.

On to `CCCCCCCCCCCCCCCC(=O)N(CC(=O)NCCCC[C@H](NC(=O)[C@H](C)NC)C(=O)N1CCC[C@H]1C(=O)NC(c1ccccc1)c1ccccc1)CC(=O)NCCCC[C@H](NC(=O)[C@H](C)NC)C(=O)N1CCC[C@H]1C(=O)NC(c1ccccc1)c1ccccc1`, for which the EC50 in the data set on MDA-MB-231 [1] turned out to be 4.2 µM. In data set [2], the half-life is under 31 h. In addition, in the data set with MDA-MB-231 [3], the Activity result was “Dose-dependent effect”.

With `CN[C@@H](C)C(=O)N[C@@H](CS)C(=O)N1CCC[C@H]1C(=O)NC(c1ccccc1)c1ccccc1`, the EC50 in the data set with MDA-MB-231 [1] was over 100 µM.

As to `CN[C@@H](C)C(=O)N[C@@H](CSSC(C)(C)C)C(=O)N1CCC[C@H]1C(=O)NC(c1ccccc1)c1ccccc1`, the concentration giving a half-maximal response (EC50) with MDA-MB-231 [1] is 49.9 µM.

Regarding `CCCCCCCCCCCCCCCCSCc1cc(CSC[C@H](NC(=O)[C@H](C)NC)C(=O)N2CCC[C@H]2C(=O)NC(c2ccccc2)c2ccccc2)cc(CSC[C@H](NC(=O)[C@H](C)NC)C(=O)N2CCC[C@H]2C(=O)NC(c2ccccc2)c2ccccc2)c1`, the EC50 with MDA-MB-231 [1] is 11.3 µM.

As for `CN[C@@H](C)C(=O)N[C@@H](CCCCNC(=O)O[C@H]1CC[C@@]2(C)C(=CCC3C2CC[C@@]2(C)C3CC[C@@H]2[C@H](C)CCCC(C)C)C1)C(=O)N1CCC[C@H]1C(=O)NC(c1ccccc1)c1ccccc1` (some centres not stated), in the data set on MDA-MB-231 [1], the EC50 was 9.7 µM.

On to `CN[C@@H](C)C(=O)N[C@@H](CSCc1ccc(CSC[C@H](NC(=O)[C@H](C)NC)C(=O)N2CCC[C@H]2C(=O)NC(c2ccccc2)c2ccccc2)cc1)C(=O)N1CCC[C@H]1C(=O)NC(c1ccccc1)c1ccccc1`, for which the EC50 with MDA-MB-231 [1] was 9.6 µM.

As to `CCCCCCCCCCCCCCCCCCCCCCCC(=O)NCCCC[C@H](NC(=O)[C@H](C)NC)C(=O)N1CCC[C@H]1C(=O)NC(c1ccccc1)c1ccccc1`, the concentration giving a half-maximal response (EC50) with MDA-MB-231 [1] was over 100 µM.

For the compound `CN[C@@H](C)C(=O)N[C@@H](CSCCS(=O)(=O)CCSC[C@H](NC(=O)[C@H](C)NC)C(=O)N1CCC[C@H]1C(=O)NC(c1ccccc1)c1ccccc1)C(=O)N1CCC[C@H]1C(=O)NC(c1ccccc1)c1ccccc1`, the EC50 with MDA-MB-231 [1] turned out to be 52.4 µM.

Turning to `CCCCCCCCCCCCCCCC(=O)OCCN(CC(=O)NCCCC[C@H](NC(=O)[C@H](C)NC)C(=O)N1CCC[C@H]1C(=O)NC(c1ccccc1)c1ccccc1)CC(=O)NCCCC[C@H](NC(=O)[C@H](C)NC)C(=O)N1CCC[C@H]1C(=O)NC(c1ccccc1)c1ccccc1`, in the data set on MDA-MB-231 [1], the EC50 was 4.3 µM.

Take `CN[C@@H](C)C(=O)N[C@@H](CSCC(=O)NCCNC(=O)CSC[C@H](NC(=O)[C@H](C)NC)C(=O)N1CCC[C@H]1C(=O)NC(c1ccccc1)c1ccccc1)C(=O)N1CCC[C@H]1C(=O)NC(c1ccccc1)c1ccccc1`: in the data set on MDA-MB-231 [1], the concentration for a half-maximal effect (EC50) is over 100 µM.

With `CN[C@@H](C)C(=O)N[C@@H](CCCCNC(=N)N)C(=O)N1CCC[C@H]1C(=O)NC(c1ccccc1)c1ccccc1`, the EC50 in the data set on MDA-MB-231 [1] was over 100 µM.

With `CN[C@@H](C)C(=O)N[C@@H](CSCc1ccc(-c2ccc(CSC[C@H](NC(=O)[C@H](C)NC)C(=O)N3CCC[C@H]3C(=O)NC(c3ccccc3)c3ccccc3)cc2)cc1)C(=O)N1CCC[C@H]1C(=O)NC(c1ccccc1)c1ccccc1`, in the data set on MDA-MB-231 [4], the “fold change (FC)” value is reported as 2.7. Also, in the data set on MDA-MB-231 [1], the EC50 was 4 µM.

Regarding `CN[C@@H](C)C(=O)N[C@@H](CCCCNC(=O)CCCCCCC(=O)NCCCC[C@H](NC(=O)[C@H](C)NC)C(=O)N1CCC[C@H]1C(=O)NC(c1ccccc1)c1ccccc1)C(=O)N1CCC[C@H]1C(=O)NC(c1ccccc1)c1ccccc1`, the EC50 in the data set with MDA-MB-231 [1] was over 100 µM.

As to `CN[C@@H](C)C(=O)N[C@@H](CSCc1cccc(Cc2cccc(CSC[C@H](NC(=O)[C@H](C)NC)C(=O)N3CCC[C@H]3C(=O)NC(c3ccccc3)c3ccccc3)c2)c1)C(=O)N1CCC[C@H]1C(=O)NC(c1ccccc1)c1ccccc1`, the EC50 in the data set with MDA-MB-231 [1] is over 100 µM.

As to `CN[C@@H](C)C(=O)N[C@@H](CCCCNC(=O)NCCCC[C@H](NC(=O)[C@H](C)NC)C(=O)N1CCC[C@H]1C(=O)NC(c1ccccc1)c1ccccc1)C(=O)N1CCC[C@H]1C(=O)NC(c1ccccc1)c1ccccc1`, the concentration giving a half-maximal response (EC50) in the data set on MDA-MB-231 [1] was over 100 µM.

On to `CN[C@@H](C)C(=O)N[C@@H](CCCCNc1cc(NCCCC[C@H](NC(=O)[C@H](C)NC)C(=O)N2CCC[C@H]2C(=O)NC(c2ccccc2)c2ccccc2)c([N+](=O)[O-])cc1[N+](=O)[O-])C(=O)N1CCC[C@H]1C(=O)NC(c1ccccc1)c1ccccc1`, for which the “fold change (FC)” value in the data set on MDA-MB-231 [4] is recorded as 2.7.
